Test results: patent publication US20090221523A1 (priority 2005, published 2009)
Values after ≈ are worked out from the molar mass of the structure shown. Read-outs that look alike come from different tables or passages of the source. Marks after values point to notes of the source that are not given here.

Assays:
HSV-1 strain F = experiment: microbe, parasite or virus in culture; format: cell-based, herpes simplex virus; details: Human alphaherpesvirus 1, HFF
HSV-1 TK− strain DM2.1 = experiment: microbe, parasite or virus in culture; format: cell-based, herpes simplex virus; details: Human alphaherpesvirus 1, HFF
[1] = test system: CV strain delta crmA (TK+); experiment: microbe, parasite or virus in culture; format: cell-based; details: Cowpox virus, Vero, read-out: CV delta crmA EC50 (TK+)
[2] = test system: CV strain TK:GFP lacZ (TK−); experiment: microbe, parasite or virus in culture; format: cell-based; details: Cowpox virus, Vero, read-out: CV TK:GFP lacZ EC50 (TK−)
HSV-1 strain E377 = test system: HSV-1 strain E377; set-up: species or system BALB/c mice; details: mouse, in vivo
in vitro = details: human
[3] = test system: vaccinia virus (Copenhagen Strain); experiment: microbe, parasite or virus in culture; format: cell-based
[4] = test system: cowpox virus (Brighton strain); experiment: microbe, parasite or virus in culture; format: cell-based; details: HFF, read-out: CV (Brighton) EC50
HFF cells [5] = experiment: cells; format: cell-based; details: Homo sapiens, 72 h, read-out: IC50, 50% inhibition of cell proliferation
vaccinia IHD strain = test system: vaccinia IHD strain; set-up: species or system BALB/c mice; details: mouse, in vivo
cowpox Brighton Strain [6] = test system: cowpox Brighton Strain; set-up: species or system BALB/c mice; details: mouse, in vivo
cowpox Brighton Strain [7] = test system: cowpox Brighton Strain; set-up: species or system BALB/c mice; details: mouse, in vivo; remark: listed apart in the source
vaccinia WR strain = test system: vaccinia WR strain; set-up: species or system BALB/c mice; details: mouse, in vivo
vaccinia (WR strain) = test system: vaccinia (WR strain); set-up: species or system mice; Mean Lung Virus Titer: unit not given here; details: mouse, in vivo
vaccinia (HID strain) = test system: vaccinia (HID strain); set-up: species or system mice; Mean Lung Virus Titer: unit not given here; details: mouse, in vivo
ΔcrmA (TK+) CV strain = experiment: microbe, parasite or virus in culture; format: cell-based; details: Cowpox virus, HFF, read-out: EC50 CV (Δcrm lacZ) TK+
[8] = test system: TK:GFP lacZ (TK−) CV strain; experiment: microbe, parasite or virus in culture; format: cell-based; details: Cowpox virus, HFF, read-out: EC50 CV (TK:gpf lacZ)
WR strain of VV = experiment: microbe, parasite or virus in culture; format: cell-based; details: Orthopoxvirus vaccinia, HFF, 24 h, read-out: EC50 for inhibiting VV DNA synthesis
VV strain WR = test system: VV strain WR; set-up: species or system BALB/c mice; details: mouse, in vivo, ip, 15 mg/kg
HFF cells [9] = details: human
purified VV TK = purified VV TK (Vaccinia virus, UniProt P68564)
[10] = read-out: EC50 HSV-1 (DM2.1) TK−
[11] = read-out: HSV-1 DM2.1 EC50 (TK−)

Nc1nc2c(ncn2COCCO)c(=O)[nH]1 [ACV, acyclovir]
EC50 (HSV-1 strain F; read-out: EC50 HSV-1 (F) TK+): 0.3 µg/mL (≈ 1.33 µM) | EC50 (HSV-1 strain F; read-out: HSV-1 F EC50 (TK+)): 0.35 ± 0.2 µg/mL (≈ 1.55 µM) | EC50 (HSV-1 TK− strain DM2.1; [10]): > 100 µg/mL | EC50 (HSV-1 TK− strain DM2.1; [11]): > 100 µg/mL | EC50 [1]: > 30 µg/mL | EC50 [2]: > 30 µg/mL | Mortality % (HSV-1 strain E377): 0% | Mortality No. dead/total no. (HSV-1 strain E377): 0/15 | CC50 (in vitro): > 100 µg/mL

Nc1ncnc2c1ncn2[C@@H]1O[C@H](CO)[C@@H](O)[C@@H]1O [AraA, vidarabine]
EC50 (HSV-1 strain F; read-out: HSV-1 F EC50 (TK+)): 6.4 ± 3.4 µg/mL (≈ 23.9 µM) | EC50 (HSV-1 TK− strain DM2.1; [11]): 4.9 µg/mL (≈ 18.3 µM) | EC50 [1]: 0.91 ± 0.005 µg/mL (≈ 3.41 µM) | EC50 [2]: 0.78 ± 0.2 µg/mL (≈ 2.92 µM) | CC50 (in vitro): > 100 µg/mL

O=c1[nH]c(=O)n([C@@H]2O[C@H](CO)[C@@H](O)[C@@H]2O)cc1/C=C/Br [BVAU, sorivudine]
EC50 (HSV-1 strain F; read-out: HSV-1 F EC50 (TK+)): 0.05 ± 0.02 µg/mL (≈ 0.143 µM) | EC50 (HSV-1 TK− strain DM2.1; [11]): > 100 µg/mL | EC50 [1]: > 30 µg/mL | EC50 [2]: > 30 µg/mL | CC50 (in vitro): > 100 µg/mL

O=c1[nH]c(=O)n([C@H]2C[C@H](O)[C@@H](CO)O2)cc1/C=C/Br [BVDU, brivudin]
EC50 (HSV-1 strain F; read-out: HSV-1 F EC50 (TK+)): 0.09 µg/mL (≈ 0.27 µM) | EC50 (HSV-1 TK− strain DM2.1; [11]): 100 µg/mL (≈ 300 µM) | EC50 [1]: > 30 µg/mL | EC50 [2]: > 30 µg/mL | CC50 (in vitro): > 100 µg/mL

O=c1[nH]c(=O)n([C@H]2C[C@H](O)[C@@H](CO)O2)cc1Br [BrdU, 5-bromodeoxyuridine]
EC50 (HSV-1 strain F; read-out: HSV-1 F EC50 (TK+)): 1.6 ± 0.2 µg/mL (≈ 5.21 µM) | EC50 (HSV-1 TK− strain DM2.1; [11]): 39 ± 6.3 µg/mL (≈ 127 µM) | EC50 [1]: 0.37 µg/mL (≈ 1.2 µM) | EC50 [2]: 19 µg/mL (≈ 61.9 µM) | CC50 (in vitro): > 100 µg/mL

Nc1ccn(C[C@@H](CO)OCP(=O)(O)O)c(=O)n1 [CDV, cidofovir]
VV (Copenhagen) EC50 [3]: 3.3 ± 0.3 µg/mL | EC50 ([3]; Orthopoxvirus vaccinia, HFF, read-out: VV (Copenhagen) EC50): 3 µg/mL (≈ 10.7 µM) | EC50 [4]: 4.4 ± 0.6 µg/mL (≈ 15.8 µM) | IC50 (HFF cells [5]): 20 ± 7 µg/mL (≈ 71.6 µM) | Mortality Number (vaccinia IHD strain): 0/15 | Mortality Percent (vaccinia IHD strain): 0% | Mortality % (vaccinia IHD strain; ip, 15 mg/kg): 0% | Mortality No. dead/total no. (vaccinia IHD strain; ip, 15 mg/kg): 0/15 | Mortality Number (cowpox Brighton Strain [6]): 0/15 | Mortality Percent (cowpox Brighton Strain [6]): 0% | Mortality % (cowpox Brighton Strain [6]; ip, 15 mg/kg): 0% | Mortality No. dead/total no. (cowpox Brighton Strain [6]; ip, 15 mg/kg): 0/15 | Number of Survivors (cowpox Brighton Strain [7]): 10/10 | Number of Survivors (vaccinia WR strain): 10/10 | MDD (mean day of death of mice that died prior to day 21) (vaccinia (WR strain)): 8.0 days | Mean Lung Virus Titer (vaccinia (WR strain)): 7.0 ± 0.2 | Survivors/Total (vaccinia (WR strain)): 9/10*** | MDD, mean day of death (vaccinia (HID strain)): >21*** day | Mean Lung Virus Titer (vaccinia (HID strain)): 4.7 ± 0.6 | Survivors/Total (vaccinia (HID strain)): 10/10*** | EC50 (HSV-1 strain F; read-out: EC50 HSV-1 (F) TK+): 1.5 ± 1.1 µg/mL (≈ 5.37 µM) | EC50 (HSV-1 strain F; read-out: HSV-1 F EC50 (TK+)): 1.5 ± 1.1 µg/mL (≈ 5.37 µM) | EC50 (HSV-1 TK− strain DM2.1; [10]): 1.5 ± 1.4 µg/mL (≈ 5.37 µM) | EC50 (HSV-1 TK− strain DM2.1; [11]): 1.5 ± 1.4 µg/mL (≈ 5.37 µM) | EC50 [1]: 16.1 ± 0.3 µg/mL (≈ 57.7 µM) | EC50 [2]: 3.3 ± 2.3 µg/mL (≈ 11.8 µM) | EC50 (ΔcrmA (TK+) CV strain): 3.5 ± 3.3 µg/mL (≈ 12.5 µM) | EC50 [8]: 4.2 ± 3.9 µg/mL (≈ 15 µM) | EC50 (WR strain of VV): 3 µg/mL (≈ 10.7 µM) | Mortality % (VV strain WR): 0% | Mortality No. dead/total no. (VV strain WR): 0/15 | CC50 (HFF cells [9]): >100 ± 0 µg/mL | Toxicity CC50 (HFF cells [9]): >100 ± 0 µg/mL | Vmax (purified VV TK): <0.025 µM/min/mg | CC50 (in vitro): > 100 µg/mL

Nc1nc(=O)n([C@@H]2O[C@H](CO)[C@@H](O)[C@@H]2F)cc1I [FIAC, fiacitabine]
EC50 (HSV-1 strain F; read-out: HSV-1 F EC50 (TK+)): 0.06 ± 0.02 µg/mL (≈ 0.162 µM) | EC50 (HSV-1 TK− strain DM2.1; [11]): 8 ± 1.3 µg/mL (≈ 21.6 µM) | EC50 [1]: 18 ± 0.25 µg/mL (≈ 48.5 µM) | EC50 [2]: 9.2 ± 3.7 µg/mL (≈ 24.8 µM) | Vmax (purified VV TK): <0.14 µM/min/mg | CC50 (in vitro): > 100 µg/mL
